≈ marks a conversion by molar mass, not a printed value. Calls of active or inactive are those of the source. The rule behind the calls is not given here. Residues, ends and D or L forms follow the SMILES beside them.
Assays:
Klebsiella pneumoniae [1] = assay: Antimicrobial activity against Klebsiella pneumoniae ATCC 13883 assessed as growth inhibition measured after 8 hrs incubation by standard broth dilution assay; type: functional
Staphylococcus aureus [2] = assay: Antimicrobial activity against methicillin-resistant Staphylococcus aureus ATCC 43300 assessed as growth inhibition measured after 8 hrs incubation by standard broth dilution assay; type: functional
Pseudomonas aeruginosa = assay: Antimicrobial activity against Pseudomonas aeruginosa ATCC 27853 assessed as growth inhibition measured after 8 hrs incubation by standard broth dilution assay; type: functional
Streptococcus pneumoniae = assay: Antimicrobial activity against Streptococcus pneumoniae ATCC 49619 assessed as growth inhibition measured after 8 hrs incubation by standard broth dilution assay; type: functional
Cell membrane [3] = assay: Binding affinity to Klebsiella pneumoniae ATCC 13883 cell membrane treated with FITC labelled peptides at MIC measured after 1.5 hr by CLSM imaging analysis; type: subcellular
Cell membrane [4] = assay: Binding affinity to methicillin-resistant Staphylococcus aureus ATCC 43300 cell membrane treated with FITC labelled peptides at MIC measured after 1.5 hr by CLSM imaging analysis; type: subcellular
Cell membrane [5] = assay: Induction of cell membrane damage in Klebsiella pneumoniae ATCC 13883 assessed as increase in red fluorescence at MIC measured after 1 hr incubation by PI based confocal microscopy; type: subcellular
Cell membrane [6] = assay: Induction of cell membrane damage in Klebsiella pneumoniae ATCC 13883 assessed as increase in green fluorescence at MIC measured after 1 hr incubation by SYTO9 confocal microscopy; type: subcellular
Cell membrane [7] = assay: Induction of cell membrane damage in methicillin-resistant Staphylococcus aureus ATCC 43300 assessed as increase in red fluorescence at MIC measured after 1 hr incubation by PI based assay; type: subcellular
Cell membrane [8] = assay: Induction of cell membrane damage in methicillin-resistant Staphylococcus aureus ATCC 43300 assessed as increase in green fluorescence at MIC measured after 1 hr incubation by SYTO9 confocal microscopy; type: subcellular
Cell membrane [9] = assay: Induction of cell membrane damage in Klebsiella pneumoniae ATCC 13883 assessed as corrugation, blebbing, breakage, and fragmentation at MIC measured after 1 hr incubation by Scanning electron microscopy; type: subcellular
Cell membrane [10] = assay: Induction of cell membrane damage in methicillin-resistant Staphylococcus aureus ATCC 43300 assessed as corrugation, blebbing, breakage, and fragmentation at MIC measured after 1 hr incubation by Scanning electron microscopy; type: subcellular
Cell membrane [11] = assay: Induction of cell membrane damage in Klebsiella pneumoniae ATCC 13883 assessed as significant plasma membrane rupture, cytosolic membrane and outer membrane separation, and cytoplasmic leakage at MIC measured after 1 hr incubation by Transmission electron microscopy; type: subcellular
Cell membrane [12] = assay: Induction of cell membrane damage in methicillin-resistant Staphylococcus aureus ATCC 43300 assessed as significant plasma membrane rupture, […], and cytoplasmic leakage at MIC measured after 1 hr incubation by Transmission electron microscopy; type: subcellular
Klebsiella pneumoniae [13] = assay: Antibiofilm activity in Klebsiella pneumoniae ATCC 13883 assessed as reduction in biofilm formation at 150 ug/ml measured after 24 hrs by crystal violet staining based assay relative to control; type: functional; parameters: scale not given: the % may be the effect or the level left; conditions: dose 150 µg/ml
Staphylococcus aureus [14] = assay: Antibiofilm activity in methicillin-resistant Staphylococcus aureus ATCC 43300 assessed as reduction in biofilm formation at 37.2 ug/ml measured after 24 hrs by crystal violet staining based assay relative to control; type: functional; parameters: scale not given: the % may be the effect or the level left; conditions: dose 37.2 µg/ml
[15] = Toxicity in mouse skin assessed as abscesses and visual lesions at 40 mg/kg, sc by histological analysis; type: organism-based; conditions: in vivo
[16] = Toxicity in mouse assessed as intramuscular injury at 40 mg/kg, sc by H and E staining based assay; type: organism-based; conditions: in vivo
[17] = Toxicity in mouse assessed as fasciculus necrosis at 40 mg/kg, sc by H and E staining based assay; type: organism-based; conditions: in vivo
Staphylococcus aureus [18] = assay: In vivo antibacterial activity against methicillin-resistant Staphylococcus aureus ATCC 43300 infected locally in full thickness skin wound mouse model assessed as clean and less exudate at 1 mg/kg treated with absorbable gelatin sponge measured on early healing stage; type: functional, organism-based; conditions: route id
Staphylococcus aureus [19] = assay: In vivo antibacterial activity against methicillin-resistant Staphylococcus aureus ATCC 43300 infected locally in full thickness skin wound mouse model assessed as reduced skin damage by promoting wound healing at 4 mg/kg treated with absorbable gelatin sponge measured on early healing stage; type: functional, organism-based; conditions: route id
Staphylococcus aureus [20] = assay: In vivo antibacterial activity against methicillin-resistant Staphylococcus aureus ATCC 43300 infected locally in full thickness skin wound mouse model assessed as reduction in bacterial load in skin wound at 1 mg/kg treated with absorbable gelatin sponge measured after 3 days; type: functional, organism-based; conditions: time 3.0 day
Staphylococcus aureus [21] = assay: In vivo antibacterial activity against methicillin-resistant Staphylococcus aureus ATCC 43300 infected locally in full thickness skin wound mouse model assessed as reduction in bacterial load in skin wound at 4 mg/kg treated with absorbable gelatin sponge measured after 3 days; type: functional, organism-based; conditions: time 3.0 day
Staphylococcus aureus [22] = assay: In vivo antibacterial activity against methicillin-resistant Staphylococcus aureus ATCC 43300 infected locally in full thickness skin wound mouse model assessed as reduction in bacterial load in skin wound at 4 mg/kg treated with absorbable gelatin sponge measured after 7 days; type: functional, organism-based; conditions: time 7.0 day
Staphylococcus aureus [23] = assay: In vivo antibacterial activity against methicillin-resistant Staphylococcus aureus ATCC 43300 infected locally in full thickness skin wound mouse model assessed as reduction in bacterial load in skin wound at 1 mg/kg treated with absorbable gelatin sponge measured after 7 days; type: functional, organism-based; conditions: time 7.0 day
Klebsiella pneumoniae [24] = assay: In vivo antibacterial activity against Klebsiella pneumoniae ATCC 13883 induced bacterial pneumonia mouse model assessed as reduction in bacterial infection induced weight loss at 1 mg/kg, injected into trachea after 24 hrs of infection measured after 3 to 7 days; type: functional, organism-based
Klebsiella pneumoniae [25] = assay: In vivo antibacterial activity against Klebsiella pneumoniae ATCC 13883 induced bacterial pneumonia mouse model assessed as reduction in bacterial infection induced weight loss at 4 mg/kg, injected into trachea after 24 hrs of infection measured after 3 to 7 days; type: functional, organism-based

Compound `CC(=O)N[C@@H](CC(C)C)C(=O)N[C@@H](CCCCN)C(=O)N[C@@H](CCCNC(=N)N)C(=O)N[C@H](C(=O)N[C@@H](Cc1c[nH]c2ccccc12)C(=O)N[C@@H](CCCCN)C(=O)N[C@@H](CCCNC(=N)N)C(=O)N[C@H](C(=O)N[C@@H](Cc1ccccc1)C(=O)N[C@@H](CCCCN)C(=O)N[C@@H](CC(C)C)C(=O)N[C@@H](CC(C)C)C(=O)N[C@@H](CCCCN)C(=O)N[C@@H](CCCNC(=N)N)C(=O)N[C@@H](Cc1ccc(O)cc1)C(=O)N[C@@H](Cc1c[nH]c2ccccc12)C(=O)N[C@@H](CCCNC(=N)N)C(=O)N[C@@H](CCC(N)=O)C(=O)N[C@@H](CC(C)C)C(=O)N[C@@H](CCCCN)C(=O)N[C@@H](CCCCN)C(=O)N1CCC[C@H]1C(=O)N[C@H](C(=O)N[C@@H](CCCNC(=N)N)C(N)=O)C(C)C)C(C)C)C(C)C` (Ac-LKRVWKRVFKLLKRYWRQLKKPVR-NH2) has an MIC (Klebsiella pneumoniae [1]) of 38 µg/mL (≈ 11.6 µM), an MIC (Staphylococcus aureus [2]) of 9.7 µg/mL (≈ 2.97 µM) and an MIC (Pseudomonas aeruginosa) of 4.9 µg/mL (≈ 1.5 µM). For the same compound, the MIC (Streptococcus pneumoniae) was 4.7 µg/mL (≈ 1.44 µM), the Activity (Cell membrane [3]) was “Active” and the Activity (Cell membrane [4]) was “Active”. For the same compound, the Activity (Cell membrane [5]) was “Active”, the Activity (Cell membrane [6]) was “Active” and the Activity (Cell membrane [7]) was “Active”. The Activity (Cell membrane [8]) was “Active”, the Activity (Cell membrane [9]) was “inactive” and the Activity (Cell membrane [10]) was “inactive”. The Activity (Cell membrane [11]) was “Active”, the Activity (Cell membrane [12]) was “Active” and the Activity (Klebsiella pneumoniae [13]) was 86.42%. The Activity (Staphylococcus aureus [14]) was 77.25%, the Activity [15] was “Toxic” and the Activity [16] was “Toxic”. The Activity [17] was “Toxic”, the Activity (Staphylococcus aureus [18]) was “Active; Model Group Showed Yellowish Compared With The Wounds Treated With Compound” and the Activity (Staphylococcus aureus [19]) was “Active”. The Activity (Staphylococcus aureus [20]) was “Active”, the Activity (Staphylococcus aureus [21]) was “Active” and the Activity (Staphylococcus aureus [22]) was “Active”. For the same compound, the Activity (Staphylococcus aureus [23]) was “Active”, the Activity (Klebsiella pneumoniae [24]) was “Active” and the Activity (Klebsiella pneumoniae [25]) was “Active”.
